Source: patent publication US8114895B2, “Use of bipyridine compound ‘Caerulomycin A’ derivatives and analogs thereof as immunosuppressive agents” (Council of Science and Industrial Research, priority 2005, dated 2012)

Experiments:
[1] = tested on: naïve CD4^+ T cells; experiment: Proliferation of naïve CD4+ T cells; type: cell-based
Protocol: Examples establishing the role of Caerulomycin A [isolated from a novel species of Actinoalloteichus] in inducing immunosuppression based on the following: • Splenocytes of BALB/c mice were stimulated with either ConA (1 μg/ml and 2 μg/ml) or LPS (5 μg/ml and 10 μg/ml) and were cultured with different concentrations of Caerulomycin A (0.0003-0.1 μg/ml). After 48 h, the cultures were pulsed with 0.5 μCi of [^3H]-thymidine and harvested 14 h later by automatic cell harvester. Radioactivity incorporated was measured by liquid scintillation counting. • Antigen ovalbumin (100 μg/ml) emulsified in Freund's complete adjuvant was injected in a group consisting of 5 BALB/c mice. […] Radioactivity incorporated was measured by liquid scintillation. The culture supernatants were collected after 48 h and cytokines were measured by ELISA. • Immunosuppressive effect of different doses of Caerulomycin A was monitored on naïve CD4^+ T cells, antigen reactive CD4^+ T cells, Th2 clone and Th1 hybridoma. […] Radioactivity incorporated was measured by liquid scintillation. • Immunosuppressive effect of Caerulomycin A on MLR reaction. […] After 4 days, the cultures were pulsed with 1 μCi of [^3H]-thymidine and harvested 16 h later and radioactivity incorporated was measured by liquid scintillation counting. • In vivo immunosuppressive effect of Caerulomycin A on the proliferation of T cells. […]

[2] = tested on: thymocytes; experiment: Expression of CD69 on mouse thymocytes; type: cell-based, BALB/c mice; details: ConA 1 and 5 μg/ml, 24 h
Protocol: The expression of CD69 was detected on the surface of thymocytes in the presence of Caerulomycin A. Thymocytes were obtained from 3-4 weeks old BALB/c mice. Thymocytes (4×10^6 cells/well) were stimulated with 1 μg/ml and 5 μg/ml of ConA for 24 h in the presence and absence of Caerulomycin A at 37° C. The cells were stained with PE labeled anti-mouse CD69 Ab. The stained cells were acquired on a FACScan as mentioned in the case of CD28/CTLA-4.

COc1cc(/C=N/O)nc(-c2ccccn2)c1 [Caerulomycin A, (E)-4-methoxy-2,2′-bipyridine-6-carbaldehyde oxime]
in vitro proliferation of naïve CD4+ T cells [1]: suppression | expression of CD69 [2]: no change in the expression
